Experiments:
[1] = target: galactose oxidase (GAO, EC 1.1.3.9) (Gibberella zeae, UniProt P0CS93); assay type: biochemical; conditions: GAO biosensor, benzylpenicillin concentration 1000 ppb in milk, glucose and galactose 1.4 mM, 38° C.
[2] = target: glucose oxidase (GOD, EC 1.1.3.4.) (Aspergillus niger, UniProt P13006); assay: GOD biosensor: oxygen decrease during glucose oxidation in hydrolysed milk with added antibiotic; assay type: biochemical; conditions: benzylpenicillin concentration 1000 ppb in milk, glucose and galactose 1.4 mM, 38° C.
Chain of glucose oxidase (GOD, EC 1.1.3.4.) (P13006 17-605, species assumed): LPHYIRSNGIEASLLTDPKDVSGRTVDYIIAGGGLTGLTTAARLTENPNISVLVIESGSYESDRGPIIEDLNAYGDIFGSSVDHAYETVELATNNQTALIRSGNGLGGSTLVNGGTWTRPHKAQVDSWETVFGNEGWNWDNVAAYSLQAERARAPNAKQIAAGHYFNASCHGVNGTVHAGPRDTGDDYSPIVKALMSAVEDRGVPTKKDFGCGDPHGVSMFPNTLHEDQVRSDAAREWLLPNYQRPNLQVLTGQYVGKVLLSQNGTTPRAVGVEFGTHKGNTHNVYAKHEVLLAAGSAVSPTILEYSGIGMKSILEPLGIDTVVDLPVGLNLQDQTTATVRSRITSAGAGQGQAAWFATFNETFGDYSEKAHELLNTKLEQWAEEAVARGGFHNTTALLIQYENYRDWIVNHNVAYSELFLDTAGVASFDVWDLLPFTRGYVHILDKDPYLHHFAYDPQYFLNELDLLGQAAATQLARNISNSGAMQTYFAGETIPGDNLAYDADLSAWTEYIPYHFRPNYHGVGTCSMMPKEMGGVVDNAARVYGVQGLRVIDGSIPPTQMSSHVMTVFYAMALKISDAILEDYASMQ

Chain of galactose oxidase (GAO, EC 1.1.3.9) (P0CS93 42-680 limits assumed): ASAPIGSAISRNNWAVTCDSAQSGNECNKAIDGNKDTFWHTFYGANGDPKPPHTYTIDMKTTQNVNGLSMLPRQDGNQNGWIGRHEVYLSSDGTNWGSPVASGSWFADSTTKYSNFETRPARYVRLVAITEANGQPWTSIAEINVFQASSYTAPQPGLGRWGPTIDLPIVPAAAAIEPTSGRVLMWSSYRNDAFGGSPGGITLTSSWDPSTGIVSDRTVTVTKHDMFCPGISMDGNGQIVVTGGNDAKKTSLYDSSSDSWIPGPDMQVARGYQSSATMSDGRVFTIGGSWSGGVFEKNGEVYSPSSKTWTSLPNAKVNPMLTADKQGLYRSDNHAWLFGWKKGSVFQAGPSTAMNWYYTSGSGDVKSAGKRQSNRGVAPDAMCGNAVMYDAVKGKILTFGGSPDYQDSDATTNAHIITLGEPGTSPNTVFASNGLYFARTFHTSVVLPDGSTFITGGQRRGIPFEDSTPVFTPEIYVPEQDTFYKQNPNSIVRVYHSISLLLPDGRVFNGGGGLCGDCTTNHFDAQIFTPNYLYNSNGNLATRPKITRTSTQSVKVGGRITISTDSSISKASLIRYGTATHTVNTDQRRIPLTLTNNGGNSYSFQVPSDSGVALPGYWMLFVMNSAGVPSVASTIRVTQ

`CC1(C)S[C@@H]2[C@H](NC(=O)Cc3ccccc3)C(=O)N2[C@H]1C(=O)O` [benzylpenicillin] was tested, and the “steady state parameter A” value ([1]; antibiotics-free milk A=0.640) was 0.435, the “kinetic parameter B” value ([1]; antibiotics-free milk B=53.0) was 97.8 s⁻¹ and the “steady state parameter A” value ([2]; antibiotics-free milk A=0.159) was 0.141. The “kinetic parameter B” value ([2]; antibiotics-free milk B=222.2) was 146.0 s⁻¹.
